# Literature values in patent US20140234433A1, “Topical Composition for Stimulating Epidermis and Dermis Layers of the Skin” (priority 2013, published 2014).
# Test system: facial skin
smiles,measurement,setting,value
CC1=C(/C=C/C(C)=C/C=C/C(C)=C/C(=O)O)C(C)(C)CCC1 [tretinoin],histological characteristics,0.001% dosage,same histological characteristics as the inactive base material
same,histological response,0.01% and 0.05%,increased response with an increase in tretinoin concentrations
same,epidermal thickness,24 weeks,increase
same,findings in the dermis,24 weeks,no positive findings
same,melanocytes,24 weeks,decrease
same,stratum corneum,24 weeks,stratum corneum compactness
same,granular layer thickness,"24 weeks, 1 layer to 2-3 layers",increase
same,dermal changes,48 weeks of treatment,limited
same,"subjects showing erythema, scaling and peeling, and reporting stinging",average of the studies,approximately 80%
same,dermal findings on continued use,continued use up to 4 years,decrease in elastin and perivascular inflammation
